Measured values: patent US20200046856A1, “METHODS FOR IDENTIFYING MBLAC1-DEPENDENT MOLECULAR NETWORKS” (Florida Atlantic University Board of Trustees, priority 2018, published 2020)
Entries after “also recorded” stand apart in the source; their conditions may differ.

Columns and labels:
[1] = biological target: T1, mouse MBLAC1 (Mus musculus, UniProt Q8BWY4); assay: Backscattering Interferometry (BSI) binding assay, lysates of T-REx cells expressing mouse MBLAC1; settings: for BSI binding signal: TET induced vs non-induced T-REx lysates, mouse MBLAC1, 5 μM and 50 μM
T1 construct: expressed in transfected cells; host or cells: HEK Flp-In T-REx-293 cells, pcDNA5/FRT/TO, TET-induced, lysate
T1 sequence (Q8BWY4 1-260): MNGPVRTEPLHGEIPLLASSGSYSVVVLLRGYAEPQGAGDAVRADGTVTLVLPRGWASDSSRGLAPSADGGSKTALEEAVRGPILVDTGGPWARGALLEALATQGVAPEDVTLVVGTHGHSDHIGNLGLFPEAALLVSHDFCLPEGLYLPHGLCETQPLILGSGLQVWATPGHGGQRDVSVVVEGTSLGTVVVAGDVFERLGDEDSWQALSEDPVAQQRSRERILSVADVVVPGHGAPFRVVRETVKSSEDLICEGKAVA
Text: Although the pulldown approach provided initial evidence of Cef interactions with MBLAC1, the efficiency of competition was lower than expected, based on prior studies reporting the in vitro potency of Cef for GLT-1 induction. It was reasoned that steric hindrance could limit high-affinity interactions of MBLAC1 with Cef-conjugated beads. As radiolabeled Cef was unavailable, a non-isotopic approach that could examine Cef/MBLAC1 interactions without ligand immobilization was sought. Backscattering interferometry is a sensitive approach that can detect both kinetic and equilibrium associations of unlabeled, small molecule interactions with unmodified target proteins (Bornhop et al., Science vol. 317, 1732-1736, 2007). […] BSI signals were eliminated by heat denaturation of extracts prior to analysis, consistent with Cef binding as arising from a proteinaceous species versus TET used to induce MBLAC1 expression.
To assess the binding of unlabeled Cef with MBLAC1 in cell and tissue lysates, BSI was utilized. A BSI instrument was assembled and employed (Kussrow et al., Anal Chem 84, 779-792, 2012). Briefly, BSI, using a semi-circular chip, a helium-neon laser, and CCD camera, allows for high-sensitivity, refractive index (RI) sensing. The RI signal is obtained by isolating shifts in the backscattered fringes by Fourier analysis. RI changes are quantified by comparing fringe shifts between test and reference samples.
(§1) Lysates for BSI contained Cef at concentrations of 0 μM, 5 μM, and 50 μM and concentrations of either 300 μg/mL (mouse cell lysates) or 100 μg/mL (human cell lysates and mouse brain lysates) protein. Samples were incubated on ice for 1 hr prior to analysis to favor equilibrium binding conditions. To obtain BSI signals, the sample with 0 μM Cef was injected into the channel in a stop-flow manner using a vacuum and allowed to reach temperature and pressure equilibrium (˜10 sec) at which point the phase value (BSI signal) was measured for 20 sec. Specific BSI signal was determined by subtracting Cef only signal from Cef-lysate signals. […]

[2] = biological target: T2, human MBLAC1 (Homo sapiens, UniProt A4D2B0); assay: Backscattering Interferometry (BSI) binding assay, lysates of T-REx cells expressing human MBLAC1; settings: TET induced vs non-induced T-REx lysates, 5 μM and 50 μM
T2 construct: expressed in transfected cells; host or cells: HEK Flp-In T-REx-293 cells, pcDNA5/FRT/TO, TET-induced, lysate
T2 sequence (A4D2B0 1-266): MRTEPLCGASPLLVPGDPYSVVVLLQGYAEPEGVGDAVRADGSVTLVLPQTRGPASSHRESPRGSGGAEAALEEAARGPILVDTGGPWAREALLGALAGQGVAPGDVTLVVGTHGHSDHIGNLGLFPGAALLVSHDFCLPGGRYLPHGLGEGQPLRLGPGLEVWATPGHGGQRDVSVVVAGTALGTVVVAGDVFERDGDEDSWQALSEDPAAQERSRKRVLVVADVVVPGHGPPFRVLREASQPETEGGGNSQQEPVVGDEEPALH
Text: Although the pulldown approach provided initial evidence of Cef interactions with MBLAC1, the efficiency of competition was lower than expected, based on prior studies reporting the in vitro potency of Cef for GLT-1 induction. It was reasoned that steric hindrance could limit high-affinity interactions of MBLAC1 with Cef-conjugated beads. As radiolabeled Cef was unavailable, a non-isotopic approach that could examine Cef/MBLAC1 interactions without ligand immobilization was sought. […]
To assess the binding of unlabeled Cef with MBLAC1 in cell and tissue lysates, BSI was utilized. […] RI changes are quantified by comparing fringe shifts between test and reference samples.
as §1, with “Samples were incubated on ice for 1 hr prior to analysis to favor equilibrium binding conditions.” left out

[3] = biological target: T3, MBLAC1 (Mus musculus, UniProt Q8BWY4); assay: BSI binding assay, mouse frontal cortex lysates with and without MBLAC1 immunodepletion
T3 construct: from tissue; host or cells: frontal cortex of wild type C57BL/6J mice, 100,000 x g supernatant
T3 sequence (Q8BWY4 1-260): T1 sequence (Q8BWY4 1-260)
Protocol: To detect endogenous Cef binding and to determine whether MBLAC1 is likely to be responsible for observed interactions, the BSI experiments were repeated using mouse frontal cortex lysates, with and without prior heat denaturation. To determine whether, and to what degree, Cef binding signals derive from MBLAC1, BSI studies were performed on lysates that had been immunodepleted of MBLAC1 protein by anti-MBLAC1 antibody (#80). […] These findings support the contention that, under these binding conditions, MBLAC1 is likely the primary species in brain lysates capable of interacting with Cef at high-affinity—that the well-replicated actions Cef in the CNS arise through MBLAC1 interactions.
Wild type C57BL/6J mice (Jackson Labs, Bar Harbor, Me.) were rapidly decapitated and frontal cortex was dissected. […] Supernatants were collected, diluted with 2× lysis buffer (40 mM HEPES, 220 mM KCl, 20 mM NaCl, 4 mM MgCl, 10 mM KH2PO4, 500 μM ZnSO4) and protein concentration determined (BCA Protein Assay, ThermoFisher, Waltham, Mass.). […]
To assess the binding of unlabeled Cef with MBLAC1 in cell and tissue lysates, BSI was utilized. […] RI changes are quantified by comparing fringe shifts between test and reference samples. […]

[4] = test system: MBLAC1 WT and MBLAC1 KO mice; assay: Effect of repeated Cef on cocaine-induced locomotion (open field); assay type: in vivo, mouse; settings: 200 mg/kg IP once daily for 10 days, cocaine 10 mg/kg 24 h later, first 30 min
Protocol: Animals: All mice were used in accordance with protocols approved by the Florida Atlantic University Institutional Animal Care and Use Committee. Mice were group-housed on a 12 h/12 h light/dark cycle and given ad libitum access to food and water. Breeding was accomplished with mating of heterozygous males with heterozygous females. Male and female mice 11-13 weeks old at the start of the experiment were used in testing the effects of repeated ceftriaxone on response to cocaine in the open field assay. Data from males and females were combined.
Repeated ceftriaxone treatment/acute cocaine administration: MBLAC1 wild-type (WT, MBLAC1^+/+) and knockout mice (MBLAC1^−/−) were used in this experiment. Mice were injected IP once daily for 10 days with 200 mg/kg ceftriaxone (CEF) or saline. Twenty-four hours following the last CEF injection, mice were injected with 10 mg/kg cocaine or saline followed immediately by testing in open field activity chambers (Med Associates, Fairfax, Vt.) for 60 minutes. Locomotor activity was evaluated by photocells in the X, Y and Z dimensions. Horizontal beam breaks, vertical beam breaks, and repetitive movements were recorded and measures, including distance traveled, vertical rearing and stereotypic counts, were calculated. Data were analyzed in 5 min time bins within session, and for the first 30 min following cocaine injection. Data were analyzed by two-way ANOVA repeated measures, with time bin as the repeated measure, or by two-way ANOVA for 30 min cumulated data. At the end of behavior, mice were euthanized by CO2.
The methods were performed essentially as described in Tallarida et al. Neurosci Lett vol. 556, p. 155-159, 2013.

[5] = test system: MBLAC1; assay: Affinity capture of MBLAC1 with Cef-conjugated Sepharose beads, free Cef competition; settings: 50 μM free Cef preincubated with MBLAC1 containing extract; n=6

Structure (SMILES) | BSI binding signal [1] | Kd ([1]; lysate from mouse MBLAC1 expressing cells, Cef 0.78 μM to 50 μM, r2=0.96, read-out: KD for binding (single site binding equation fit to BSI data)) [nM] | BSI binding signal [2] | BSI binding signal in MBLAC1-immunodepleted mouse frontal cortex lysate ([3]; immunodepleted with MBLAC1 antibody #80) | BSI binding signal in mouse frontal cortex lysate ([3]; non-depleted lysate, 5 μM and 50 μM) | Effect of Cef pretreatment on cocaine-induced locomotion in MBLAC1 KO mice [4] | Effect of Cef pretreatment on cocaine-induced locomotion in MBLAC1 WT mice [4] | Effect of Cef pretreatment on cocaine-induced locomotion in MBLAC1 KO mice ([4]; listed as CEF) | Effect of Cef pretreatment on cocaine-induced locomotion in MBLAC1 WT mice ([4]; listed as CEF) | Mean reduction in MBLAC1 binding to immobilized Cef [5] [%]
CC(=O)OCC1=C(C(=O)O)N2C(=O)[C@@H](NC(=O)CCC[C@@H](N)C(=O)O)[C@H]2SC1 [CephC, cephalosporin C] | a significant CephC BSI signal (FIG. 3D) was not seen; also recorded: non-significant reduction in BSI signal |  |  |  |  |  |  |  |  | 
CO/N=C(\C(=O)N[C@@H]1C(=O)N2C(C(=O)O)=C(CSc3nc(=O)c(=O)[nH]n3C)CS[C@H]12)c1csc(N)n1 [Cef, ceftriaxone] | significant, dose-dependent BSI signals were detected only in induced cell lysates; also recorded: concentration-dependent, heat-sensitive BSI binding signals | 2200 | significant, dose-dependent BSI signals were detected only in induced cell lysates; also recorded: concentration-dependent, heat-sensitive BSI binding signals | the Cef binding signal was abolished; also recorded: eliminated Cef binding activity | shows binding signal with Cef | no ability to attenuate cocaine actions | the locomotor activating effects of cocaine were lost | had no effect on the response to cocaine | completely blocked the effects of cocaine | 52.4±9.3
